Assay results reported in ChEMBL document CHEMBL1138025, “Nocathiacin I analogues: synthesis, in vitro and in vivo biological activity of novel semi-synthetic thiazolyl peptide antibiotics” (Bioorg Med Chem Lett, 2004).
In brackets after ≈: the same amount, converted by molar mass.

Legend:
Mus musculus [1] = experiment: In vivo efficacy (PD50) against lethal Staphylococcus aureus systemic infection model in mice; assay type: functional; details: read-out: PD50
Streptococcus pneumoniae = experiment: In vitro antibacterial activity against penicillin-resistant Streptococcus pneumoniae A28272; assay type: functional
Staphylococcus aureus = experiment: In vitro antibacterial activity against methicillin-sensitive Staphylococcus aureus A15090; assay type: functional
[2] = Equilibrium water solubility at pH 2.8; assay type: physicochemical
Enterococcus faecalis = experiment: In vitro antibacterial activity against methicillin-sensitive Enterococcus faecalis A20688; assay type: functional
[3] = Equilibrium water solubility at pH 3.3; assay type: physicochemical
[4] = Equilibrium water solubility at pH 3.2; assay type: physicochemical
[5] = Equilibrium water solubility at pH 3.9; assay type: physicochemical
[6] = Equilibrium water solubility at pH 2.7; assay type: physicochemical
[7] = target: Neuronal acetylcholine receptor; alpha4/beta2 (Rattus norvegicus, UniProt P09483+P12390); experiment: Inhibition of [3H]- cytisine binding to Nicotinic acetylcholine receptor alpha4-beta2 of rat cortical membranes; assay type: cell membranes, Membrane
Mus musculus [8] = species on record: Mus musculus; experiment: Effective concentration showing antinociception activity was determined by tail flick test in mouse; assay type: functional, organism-based
[9] = Equilibrium water solubility at pH 3.8; assay type: physicochemical
[10] = Equilibrium water solubility at pH 2.9; assay type: physicochemical
[11] = Equilibrium water solubility at pH 4.0; assay type: physicochemical
[12] = Equilibrium water solubility at pH 3.5; assay type: physicochemical
[13] = Equilibrium water solubility at pH 2.6; assay type: physicochemical

Sequence of Neuronal acetylcholine receptor; alpha4/beta2 (P09483 whole entry): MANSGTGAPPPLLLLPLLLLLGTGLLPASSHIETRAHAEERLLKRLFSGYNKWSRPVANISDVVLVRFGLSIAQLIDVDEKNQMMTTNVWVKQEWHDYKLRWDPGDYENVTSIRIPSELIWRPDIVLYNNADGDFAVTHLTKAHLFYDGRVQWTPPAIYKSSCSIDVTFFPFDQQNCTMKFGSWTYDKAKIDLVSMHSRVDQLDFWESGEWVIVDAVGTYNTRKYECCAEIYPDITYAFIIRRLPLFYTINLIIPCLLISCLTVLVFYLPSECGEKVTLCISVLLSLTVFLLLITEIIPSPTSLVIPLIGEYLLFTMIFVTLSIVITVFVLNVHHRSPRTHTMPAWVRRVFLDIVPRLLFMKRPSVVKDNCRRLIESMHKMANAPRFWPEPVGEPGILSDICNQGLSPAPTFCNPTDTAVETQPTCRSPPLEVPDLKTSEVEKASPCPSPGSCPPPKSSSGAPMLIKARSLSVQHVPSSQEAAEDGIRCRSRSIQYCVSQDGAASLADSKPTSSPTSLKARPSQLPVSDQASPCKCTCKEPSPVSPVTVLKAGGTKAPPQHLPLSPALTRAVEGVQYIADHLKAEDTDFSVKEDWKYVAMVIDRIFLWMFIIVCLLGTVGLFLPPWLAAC
Sequence of Neuronal acetylcholine receptor; alpha4/beta2 (P12390 whole entry): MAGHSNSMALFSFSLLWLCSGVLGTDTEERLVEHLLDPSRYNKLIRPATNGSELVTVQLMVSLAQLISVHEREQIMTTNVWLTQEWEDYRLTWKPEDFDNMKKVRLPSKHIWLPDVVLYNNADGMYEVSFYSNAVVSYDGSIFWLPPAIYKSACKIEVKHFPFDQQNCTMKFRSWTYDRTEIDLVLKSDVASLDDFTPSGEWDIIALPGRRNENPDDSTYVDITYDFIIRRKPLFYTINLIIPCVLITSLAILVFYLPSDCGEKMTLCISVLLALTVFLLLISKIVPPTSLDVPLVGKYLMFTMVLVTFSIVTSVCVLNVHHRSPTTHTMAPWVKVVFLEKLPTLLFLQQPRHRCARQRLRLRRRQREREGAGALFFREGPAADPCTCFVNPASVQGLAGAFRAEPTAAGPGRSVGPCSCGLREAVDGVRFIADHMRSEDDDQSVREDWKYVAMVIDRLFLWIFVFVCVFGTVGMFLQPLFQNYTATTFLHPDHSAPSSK

Structure (SMILES)	ED50 (Mus musculus [1])	MIC (Streptococcus pneumoniae)	MIC (Staphylococcus aureus)	MIC (Enterococcus faecalis)	also measured
CO/C(C)=C1/NC(=O)[C@H]([C@@H](C)O)NC(=O)c2csc(n2)-c2cc(O)c(-c3nc(C(=O)NC(CNCCN4CCN(C)CC4)C(N)=O)cs3)nc2-c2csc(n2)[C@@H]2COC(=O)c3c4c5c(cccc5n3O)COC(=O)[C@@H](O[C@H]3C[C@](C)(O)[C@H](N(C)C)[C@H](C)O3)[C@@H](OC4)[C@H](NC(=O)c3csc1n3)c1nc(cs1)C(=O)N2 (stereo partly specified)	> 10 mg/kg	0.01 µg/mL (≈ 0.00633 µM)	0.25 µg/mL (≈ 0.158 µM)	4 µg/mL (≈ 2.53 µM)	solubility thermodynamic [2]: > 2900 µg/mL
CO/C(C)=C1/NC(=O)[C@H]([C@@H](C)O)NC(=O)c2csc(n2)-c2cc(O)c(-c3nc(C(=O)NC(CNCCOCCOCCO)C(N)=O)cs3)nc2-c2csc(n2)[C@@H]2COC(=O)c3c4c5c(cccc5n3O)COC(=O)[C@@H](O[C@H]3C[C@](C)(O)[C@H](N(C)C)[C@H](C)O3)[C@@H](OC4)[C@H](NC(=O)c3csc1n3)c1nc(cs1)C(=O)N2 (stereo partly specified)	4.6 mg/kg	0.06 µg/mL (≈ 0.0378 µM)	0.25 µg/mL (≈ 0.158 µM)	0.5 µg/mL (≈ 0.315 µM)	solubility thermodynamic [3]: > 3100 µg/mL
CO/C(C)=C1/NC(=O)C([C@@H](C)O)NC(=O)c2csc(n2)-c2cc(O)c(-c3nc(C(=O)NC(CNCCCn4ccnc4)C(N)=O)cs3)nc2-c2csc(n2)[C@@H]2COC(=O)c3c4c5c(cccc5n3O)COC(=O)[C@@H](O[C@H]3C[C@](C)(O)[C@H](N(C)C)[C@H](C)O3)[C@@H](OC4)[C@H](NC(=O)c3csc1n3)c1nc(cs1)C(=O)N2 (stereo partly specified)	10 mg/kg	0.06 µg/mL (≈ 0.0384 µM)	0.5 µg/mL (≈ 0.32 µM)	1 µg/mL (≈ 0.64 µM)	solubility thermodynamic [4]: > 10000 µg/mL
CO/C(C)=C1/NC(=O)[C@H]([C@@H](C)O)NC(=O)c2csc(n2)-c2cc(O)c(-c3nc(C(=O)NC(CN(C)CCCn4ccnc4)C(N)=O)cs3)nc2-c2csc(n2)[C@@H]2COC(=O)c3c4c5c(cccc5n3O)COC(=O)[C@@H](O[C@H]3C[C@](C)(O)[C@H](N(C)C)[C@H](C)O3)[C@@H](OC4)[C@H](NC(=O)c3csc1n3)c1nc(cs1)C(=O)N2 (stereo partly specified)	5 mg/kg	0.01 µg/mL (≈ 0.00634 µM)	0.12 µg/mL (≈ 0.0761 µM)	0.12 µg/mL (≈ 0.0761 µM)	solubility thermodynamic [5]: > 10600 µg/mL
CO/C(C)=C1/NC(=O)[C@H]([C@@H](C)O)NC(=O)c2csc(n2)-c2cc(O)c(-c3nc(C(=O)NC(CN(C)C)C(N)=O)cs3)nc2-c2csc(n2)[C@@H]2COC(=O)c3c4c5c(cccc5n3O)COC(=O)[C@@H](O[C@H]3C[C@](C)(O)[C@H](N(C)C)[C@H](C)O3)[C@@H](OC4)[C@H](NC(=O)c3csc1n3)c1nc(cs1)C(=O)N2 (stereo partly specified)	< 0.62 mg/kg	0.03 µg/mL (≈ 0.0202 µM)	0.06 µg/mL (≈ 0.0405 µM)	0.12 µg/mL (≈ 0.0809 µM)	solubility thermodynamic [3]: > 10000 µg/mL
CO/C(C)=C1/NC(=O)[C@H]([C@@H](C)O)NC(=O)c2csc(n2)-c2cc(O)c(-c3nc(C(=O)NC(CN4CCN(CC(=O)O)CC4)C(N)=O)cs3)nc2-c2csc(n2)[C@@H]2COC(=O)c3c4c5c(cccc5n3O)COC(=O)[C@@H](O[C@H]3C[C@](C)(O)[C@H](N(C)C)[C@H](C)O3)[C@@H](OC4)[C@H](NC(=O)c3csc1n3)c1nc(cs1)C(=O)N2 (stereo partly specified)	> 10 mg/kg	0.03 µg/mL (≈ 0.019 µM)	1 µg/mL (≈ 0.632 µM)	1 µg/mL (≈ 0.632 µM)	solubility thermodynamic [3]: > 2600 µg/mL
CO/C(C)=C1/NC(=O)[C@H]([C@@H](C)O)NC(=O)c2csc(n2)-c2cc(O)c(-c3nc(C(=O)NC(CN4CCN(C(C)=O)CC4)C(N)=O)cs3)nc2-c2csc(n2)[C@@H]2COC(=O)c3c4c5c(cccc5n3O)COC(=O)[C@@H](O[C@H]3C[C@](C)(O)[C@H](N(C)C)[C@H](C)O3)[C@@H](OC4)[C@H](NC(=O)c3csc1n3)c1nc(cs1)C(=O)N2 (stereo partly specified)	5 mg/kg	0.03 µg/mL (≈ 0.0192 µM)	0.5 µg/mL (≈ 0.319 µM)	2 µg/mL (≈ 1.28 µM)	solubility thermodynamic [6]: > 2400 µg/mL
Clc1ccc(C2CC3CCC2CN3)cn1 (stereo unspecified)	–	–	–	–	Ki [7]: 0.34 nM; EC50 (Mus musculus [8]): 1.4 mg/kg
CO/C(C)=C1/NC(=O)[C@H]([C@@H](C)O)NC(=O)c2csc(n2)-c2cc(O)c(-c3nc(C(=O)NC(CN4CCC(O)CC4)C(N)=O)cs3)nc2-c2csc(n2)[C@@H]2COC(=O)c3c4c5c(cccc5n3O)COC(=O)[C@@H](O[C@H]3C[C@](C)(O)[C@H](N(C)C)[C@H](C)O3)[C@@H](OC4)[C@H](NC(=O)c3csc1n3)c1nc(cs1)C(=O)N2 (stereo partly specified)	2.1 mg/kg	0.007 µg/mL (≈ 0.00455 µM)	0.06 µg/mL (≈ 0.039 µM)	0.25 µg/mL (≈ 0.162 µM)	solubility thermodynamic [9]: > 2700 µg/mL
CO/C(C)=C1/NC(=O)[C@H]([C@@H](C)O)NC(=O)c2csc(n2)-c2cc(O)c(-c3nc(C(=O)NC(CN(C)CCN(C)C)C(N)=O)cs3)nc2-c2csc(n2)[C@@H]2COC(=O)c3c4c5c(cccc5n3O)COC(=O)[C@@H](O[C@H]3C[C@](C)(O)[C@H](N(C)C)[C@H](C)O3)[C@@H](OC4)[C@H](NC(=O)c3csc1n3)c1nc(cs1)C(=O)N2 (stereo partly specified)	3.3 mg/kg	0.007 µg/mL (≈ 0.00455 µM)	0.06 µg/mL (≈ 0.039 µM)	0.5 µg/mL (≈ 0.325 µM)	solubility thermodynamic [10]: > 10000 µg/mL
C=C(NC(=O)c1csc(-c2nc3c(cc2O)-c2nc(cs2)C(=O)N[C@@H]([C@@H](C)O)C(=O)N/C(=C(\C)OC)c2nc(cs2)C(=O)N[C@@H]2c4nc(cs4)C(=O)N[C@@H](COC(=O)c4c5c6c(cccc6n4O)COC(=O)C(O[C@H]4C[C@](C)(O)[C@H](N(C)C)[C@H](C)O4)[C@H]2OC5)c2nc-3cs2)n1)C(N)=O (stereo partly specified)	0.8 mg/kg	0.001 µg/mL (≈ 0.000696 µM)	0.007 µg/mL (≈ 0.00487 µM)	0.03 µg/mL (≈ 0.0209 µM)	solubility thermodynamic [11]: 340 µg/mL (≈ 237 µM)
CO/C(C)=C1/NC(=O)[C@H]([C@@H](C)O)NC(=O)c2csc(n2)-c2cc(O)c(-c3nc(C(=O)NC(CNCCOCCOCCOCCN)C(N)=O)cs3)nc2-c2csc(n2)[C@@H]2COC(=O)c3c4c5c(cccc5n3O)COC(=O)[C@@H](O[C@H]3C[C@](C)(O)[C@H](N(C)C)[C@H](C)O3)[C@@H](OC4)[C@H](NC(=O)c3csc1n3)c1nc(cs1)C(=O)N2 (stereo partly specified)	> 10 mg/kg	0.25 µg/mL (≈ 0.153 µM)	1 µg/mL (≈ 0.614 µM)	1 µg/mL (≈ 0.614 µM)	solubility thermodynamic [4]: > 2800 µg/mL
COCCOCCOCCOCCN1CCN(CC(NC(=O)c2csc(-c3nc4c(cc3O)-c3nc(cs3)C(=O)N[C@@H]([C@@H](C)O)C(=O)N/C(=C(\C)OC)c3nc(cs3)C(=O)N[C@@H]3c5nc(cs5)C(=O)N[C@@H](COC(=O)c5c6c7c(cccc7n5O)COC(=O)[C@@H](O[C@H]5C[C@](C)(O)[C@H](N(C)C)[C@H](C)O5)[C@H]3OC6)c3nc-4cs3)n2)C(N)=O)CC1 (stereo partly specified)	1.5 mg/kg	0.25 µg/mL (≈ 0.146 µM)	0.5 µg/mL (≈ 0.292 µM)	4 µg/mL (≈ 2.33 µM)	solubility thermodynamic [12]: > 1500 µg/mL
CNCCNCC(NC(=O)c1csc(-c2nc3c(cc2O)-c2nc(cs2)C(=O)N[C@@H]([C@@H](C)O)C(=O)N/C(=C(\C)OC)c2nc(cs2)C(=O)N[C@@H]2c4nc(cs4)C(=O)N[C@@H](COC(=O)c4c5c6c(cccc6n4O)COC(=O)[C@@H](O[C@H]4C[C@](C)(O)[C@H](N(C)C)[C@H](C)O4)[C@H]2OC5)c2nc-3cs2)n1)C(N)=O (stereo partly specified)	–	0.03 µg/mL (≈ 0.0198 µM)	0.25 µg/mL (≈ 0.165 µM)	0.5 µg/mL (≈ 0.331 µM)	solubility thermodynamic [13]: > 2500 µg/mL
CO/C(C)=C1/NC(=O)[C@H]([C@@H](C)O)NC(=O)c2csc(n2)-c2cc(O)c(-c3nc(C(=O)NC(CN(C)CCC(=O)Nc4ccncc4)C(N)=O)cs3)nc2-c2csc(n2)[C@@H]2COC(=O)c3c4c5c(cccc5n3O)COC(=O)[C@@H](O[C@H]3C[C@](C)(O)[C@H](N(C)C)[C@H](C)O3)[C@@H](OC4)[C@H](NC(=O)c3csc1n3)c1nc(cs1)C(=O)N2 (stereo partly specified)	8.7 mg/kg	0.03 µg/mL (≈ 0.0186 µM)	0.5 µg/mL (≈ 0.309 µM)	0.5 µg/mL (≈ 0.309 µM)	solubility thermodynamic [2]: > 3000 µg/mL
